Values of other authors as cited in patent US20250360135A1, “COMPOSITIONS COMPRISING DISODIUM 5,10-METHYLENE-(6R)-TETRAHYDROFOLATE” (MERCK PATENT GMBH, priority 2022, published 2025).

## Nc1nc2c(c(=O)[nH]1)N1CN(c3ccc(C(=O)N[C@@H](CCC(=O)O)C(=O)O)cc3)C[C@H]1CN2 [5,10-methylene-(6R,S)-tetrahydrofolic acid]
After 7 hours
  purity after 7 hours: 84%
After 24 hours
  normalized purity after 24 hours: 45%
re-constituted lyophilizate, linear regression of stability profile
  degradation rate (loss of purity per hour): 2.2 % purity per hour
